Laboratory results: US20260098026A1, “M4 ACTIVATORS/MODULATORS AND USES THEREOF” (Cerevel Therapeutics, LLC, priority 2022, published 2026)
pEC50: −log10 of the molar value.

Tests used:
M4 mAChR = biological target: T1, M4 mAChR (Homo sapiens, UniProt P08173); test: cAMP TR-FRET assay with forskolin, M4-overexpressing CHO-K1 cells; assay type: cell-based
T1 construct: expressed in transfected cells; host or cells: CHO-K1
T1 sequence (P08173 1-479): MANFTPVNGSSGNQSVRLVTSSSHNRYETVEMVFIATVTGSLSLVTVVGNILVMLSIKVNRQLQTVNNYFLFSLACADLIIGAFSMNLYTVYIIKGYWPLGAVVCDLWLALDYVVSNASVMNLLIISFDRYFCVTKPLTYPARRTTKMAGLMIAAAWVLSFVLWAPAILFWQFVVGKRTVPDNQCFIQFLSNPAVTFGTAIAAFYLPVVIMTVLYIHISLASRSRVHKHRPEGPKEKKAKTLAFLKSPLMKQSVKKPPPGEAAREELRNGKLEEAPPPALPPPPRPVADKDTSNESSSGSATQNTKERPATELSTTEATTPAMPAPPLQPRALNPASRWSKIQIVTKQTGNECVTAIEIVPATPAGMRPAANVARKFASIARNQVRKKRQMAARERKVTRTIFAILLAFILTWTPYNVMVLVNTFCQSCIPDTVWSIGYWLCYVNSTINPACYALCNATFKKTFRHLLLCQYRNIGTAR
Source text: The M2 and M4 mACh receptors are Gi-coupled receptors which, upon activation, produce a decrease in cAMP. Assays were developed that measured the potency and efficacy of compounds at the M2 or M4 mAChR using M2- or M4-overexpressing CHO-K1 cell lines. Time-resolved fluorescence resonance energy transfer (TR-FRET) technology was used, where signal occurs as a result of transfer of energy if the donor molecule is in close proximity to an acceptor molecule when the molecules have bound to the molecule of interest. The cAMP detection is a competition binding assay, where cAMP produced by cells competes for binding with the labeled donor molecule to the anti-cAMP acceptor antibody. Due to the low basal levels of cAMP in the CHO-K1 cell line, forskolin was used to increase cAMP levels to enable assessment of agonist activity at the mAChR of interest.

[1] = biological target: T2, M3 muscarinic acetylcholine receptor (mAChR) (Homo sapiens, UniProt P20309); test: FLIPR calcium assay (Fluo 8), M3-overexpressing CHO-K1 cells; assay type: cell-based
T2 construct: expressed in transfected cells; host or cells: CHO-K1
Description: Stimulation of a Gq-coupled G-protein coupled receptors (GPCRs), result in an efflux of calcium from the endoplasmic reticulum to the cytoplasm (Berridge, 1993), thus rendering this assay appropriate for the assessment of M1, M3 and M5 receptors. CHO-K1 cells overexpressing the M1, M3, or M5 muscarinic acetylcholine receptor (mAChR) were dispensed at 15,000 cells per well in 30 μl volume to 384-well plates and grown overnight at 37° C. in a 5% CO2 atmosphere. Fluo-8 Solution, 10 μl per well, was added to each well and incubated for 30 minutes at 37° C. in a 5% CO2 atmosphere. Compounds diluted in Hanks' balanced salt solution (HBSS) were transferred to the cell assay plate at 10 μl per well, and then read on a FLIPR instrument. EC50 and Emax figures were calculated from the resulting data for each receptor subtype.

T2 sequence (P20309 whole entry): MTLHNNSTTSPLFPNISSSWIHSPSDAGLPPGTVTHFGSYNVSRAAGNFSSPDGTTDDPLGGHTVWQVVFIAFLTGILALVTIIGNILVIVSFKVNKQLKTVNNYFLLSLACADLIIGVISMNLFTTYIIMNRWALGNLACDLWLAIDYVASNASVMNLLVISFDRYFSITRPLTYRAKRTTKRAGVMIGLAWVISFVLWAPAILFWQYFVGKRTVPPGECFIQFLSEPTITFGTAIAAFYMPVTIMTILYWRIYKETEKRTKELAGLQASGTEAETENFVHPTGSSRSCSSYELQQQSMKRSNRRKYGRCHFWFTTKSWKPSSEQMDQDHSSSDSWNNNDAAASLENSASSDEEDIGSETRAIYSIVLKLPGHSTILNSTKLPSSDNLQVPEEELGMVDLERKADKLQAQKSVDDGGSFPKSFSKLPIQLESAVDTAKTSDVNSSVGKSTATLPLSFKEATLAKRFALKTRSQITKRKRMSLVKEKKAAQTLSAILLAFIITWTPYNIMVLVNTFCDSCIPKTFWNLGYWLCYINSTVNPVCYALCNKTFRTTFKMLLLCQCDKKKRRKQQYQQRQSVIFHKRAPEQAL

Structure (SMILES)	Emax (M4 mAChR; cAMP TR-FRET with forskolin) [%]	pEC50 ([1]; FLIPR calcium)	Emax (M4 mAChR; cAMP assay) [%]	pEC50 ([1]; FLIPR)
CCOC(=O)N1CC2(CC[C@@H](N3CCN(c4cc(F)cnc4-c4ccncc4F)CC3)C2)C1 [Compound A45]	80 to 100	< 5.00	–	–
CCOC(=O)N1CC2(CC[C@@H](N3CCN(c4cc(F)cnc4-c4ccnc5[nH]ccc45)CC3)C2)C1 [Compound A30]	80 to 100	< 5.00	–	–
CCOC(=O)N1CC2(CC[C@@H](N3CCN(c4cc(F)cnc4-c4cccn(C)c4=O)CC3)C2)C1 [Compound A203]	–	–	19 to 49.9	< 5.00
CCOC(=O)N1CC2(CC[C@@H](N3CCN(c4cc(F)cnc4-c4ccc5c(c4)OCCN5)CC3)C2)C1 [Compound A95]	80 to 100	< 5.00	–	–
CCOC(=O)N1CC2(CC[C@@H](N3CCN(c4cc(F)cnc4-c4cccnc4C)CC3)C2)C1 [Compound A109]	80 to 100	< 5.00	–	–
CCOC(=O)N1CC2(CC[C@@H](N3CCN(c4cc(F)cnc4-c4cc(C)c(=O)n(C)c4)CC3)C2)C1 [Compound A202]	–	–	19 to 49.9	< 5.00
CCOC(=O)N1CC2(CC[C@@H](N3CCN(c4cc(F)cnc4-c4cnc(C)cn4)CC3)C2)C1 [Compound A231]	–	–	50 to 79.9	< 5.00
CCOC(=O)N1CC2(CC[C@@H](N3CCN(c4cc(F)cnc4-c4ccnc(F)c4)CC3)C2)C1 [Compound A55]	80 to 100	< 5.00	–	–
CCOC(=O)N1CC2(CC[C@@H](N3CCN(c4cc(F)cnc4-c4ccc5nn(C)cc5c4)CC3)C2)C1 [Compound A33]	80 to 100	< 5.00	–	–
CCOC(=O)N1CC2(CC[C@@H](N3CCN(c4cc(F)cnc4-c4ccc5c[nH]nc5c4)CC3)C2)C1 [Compound A159]	–	–	80 to 100	< 5.00
CCOC(=O)N1CC2(CC[C@@H](N3CCN(c4cc(F)cnc4-c4cccc(O)c4F)CC3)C2)C1 [Compound A142]	80 to 100	< 5.00	–	–
CCOC(=O)N1CC2(CC[C@@H](N3CCN(c4cc(Cl)cnc4-c4ccn(C)n4)CC3)C2)C1 [Compound A208]	–	–	50 to 79.9	< 5.00
CCOC(=O)N1CC2(CC[C@@H](N3CCN(c4cc(F)cnc4-c4c(C)n[nH]c4C)CC3)C2)C1 [Compound A81]	80 to 100	< 5.00	–	–
CCOC(=O)N1CC2(CC[C@@H](N3CCN(c4cc(F)cnc4-c4cncc(OC)c4)CC3)C2)C1 [Compound A36]	80 to 100	< 5.00	–	–
CCOC(=O)N1CC2(CC[C@@H](N3CCN(c4cc(F)cnc4C4CCN(C)CC4)CC3)C2)C1 [Compound A273]	–	–	80 to 100	< 5.00
CCOC(=O)N1CC2(CC(N3[C@@H]4CC[C@H]3CN(c3cc(F)cnc3-c3cnccn3)C4)CS2)C1 (single isomer, unassigned) [Compound A219]	–	–	< 19	< 5.00
CCOC(=O)N1CC2(CC[C@@H](N3CCN(c4cc(F)cnc4-c4ccc5nc[nH]c5c4)CC3)C2)C1 [Compound A148]	–	–	80 to 100	< 5.00
CCOC(=O)N1CC2(CC[C@@H](N3CCN(c4cc(C#N)cnc4-c4cnccn4)CC3)C2)C1 [Compound A272]	–	–	19 to 49.9	< 5.00
CCOC(=O)N1CC2(CC[C@@H](N3CCN(c4cccnc4-c4cnccn4)CC3)C2)C1 [Compound A244]	–	–	80 to 100	< 5.00
[2H]C([2H])([2H])n1cc(-c2ncc(F)cc2N2CCN([C@@H]3CCC4(C3)CN(C(=O)OCC)C4)CC2)cn1 [Compound A187]	–	–	80 to 100	< 5.00
CCOC(=O)N1CC2(CC[C@@H](N3CCN(c4cc(F)cnc4-c4ccn5nccc5c4)CC3)C2)C1 [Compound A165]	–	–	80 to 100	< 5.00
CCOC(=O)N1CC2(CC[C@@H](N3CCN(c4cc(F)cnc4-c4ccc(F)c(CO)c4)CC3)C2)C1 [Compound A105]	80 to 100	< 5.00	–	–
CCOC(=O)N1CC2(CC[C@@H](N3CCN(c4cc(F)cnc4NC4CCOCC4)CC3)C2)C1 [Compound A9, ethyl (6R)-6-[4-[5-fluoro-2-(tetrahydropyran-4-ylamino)-3-pyridyl]piperazin-1-yl]-2-azaspiro[3.4]octane-2-carboxylate]	80 to 100	< 5.00	–	–
CCOC(=O)N1CC2(CC[C@@H](N3CCN(c4cc(F)cnc4-c4cnc(OC(F)F)cn4)CC3)C2)C1 [Compound A235]	–	–	80 to 100	< 5.00

Structure (SMILES)	Emax (M4 mAChR; cAMP TR-FRET with forskolin) [%]	pEC50 ([1]; FLIPR calcium)	Emax (M4 mAChR; cAMP assay) [%]	pEC50 ([1]; FLIPR)
CCOC(=O)N1CC2(CC[C@@H](N3CCN(c4cc(F)cnc4-c4ccc(CO)c(C)c4)CC3)C2)C1 [Compound A134]	80 to 100	< 5.00	–	–
CCOC(=O)N1CC2(CC[C@@H](N3CCN(c4cc(F)cnc4-c4ccnc(F)n4)CC3)C2)C1 [Compound A284]	–	–	80 to 100	< 5.00
CCOC(=O)N1CC2(CC[C@@H](N3CCN(c4cc(F)cnc4-c4cnn(C(F)(F)F)c4)CC3)C2)C1 [Compound A285]	–	–	80 to 100	< 5.00
CCOC(=O)N1CC2(CC[C@@H](N3CCN(c4cc(F)cnc4-c4ccc(OCC)nc4)CC3)C2)C1 [Compound A107]	80 to 100	< 5.00	–	–
CCOC(=O)N1CC2(CC[C@@H](N3CCN(c4cc(F)cnc4-n4ccc(C)n4)CC3)C2)C1 [Compound A291]	–	–	50 to 79.9	< 5.00
CCOC(=O)N1CC2(CC[C@@H](N3CCN(c4cc(Cl)cnc4-c4cnn(C(C)C)n4)CC3)C2)C1 [Compound A258]	–	–	50 to 79.9	< 5.00
CCOC(=O)N1CC2(CC[C@@H](N3CCN(c4cc(F)cnc4-c4ccc(OC(F)F)nc4)CC3)C2)C1 [Compound A189]	–	–	80 to 100	< 5.00
CCOC(=O)N1CC2(CC[C@@H](N3CCN(c4cc(F)cnc4-c4ccc5c(c4)nnn5C)CC3)C2)C1 [Compound A176]	–	–	80 to 100	< 5.00
CCOC(=O)N1CC2(CC[C@@H](N3CCN(c4cc(F)cnc4-c4cn(C)c5ncccc45)CC3)C2)C1 [Compound A164]	–	–	50 to 79.9	< 5.00
CCOC(=O)N1CC2(CC[C@@H](N3CCN(c4cc(F)cnc4-c4cccnc4F)CC3)C2)C1 [Compound A179]	–	–	80 to 100	< 5.00
CCOC(=O)N1CC2(CC[C@@H](N3CCN(c4cc(F)cnc4-c4csc(CO)c4)CC3)C2)C1 [Compound A86]	80 to 100	< 5.00	–	–
CCOC(=O)N1CC2(CCC(N3CCN(c4cccnc4N4CCC(C#N)CC4)CC3)C2)C1 (stereo not shown) [Compound A217]	–	–	80 to 100	< 5.00
CCOC(=O)N1CC2(CC[C@@H](N3CCN(c4cc(F)cnc4-c4cccc(C#N)c4)CC3)C2)C1 [Compound A39]	80 to 100	< 5.00	–	–
CCOC(=O)N1CC2(CC[C@@H](N3CCN(c4cc(F)cnc4-c4cnc(N5CCC5)nc4)CC3)C2)C1 [Compound A124]	80 to 100	< 5.00	–	–
CCOC(=O)N1CC2(CC[C@@H](N3CCN(c4cc(F)cnc4-c4cnn(CCF)c4)CC3)C2)C1 [Compound A171]	–	–	80 to 100	< 5.00
CCOC(=O)N1CC2(CC[C@@H](N3CCN(c4cc(F)cnc4-c4ccc(C#N)cc4OC)CC3)C2)C1 [Compound A94]	80 to 100	< 5.00	–	–
CCOC(=O)N1CC2(CC[C@@H](N3CCN(c4cc(F)cnc4-c4cc(C)cc(CO)c4)CC3)C2)C1 [Compound A141]	80 to 100	< 5.00	–	–
CCOC(=O)N1CC2(CC[C@@H](N3CCN(c4cc(F)cnc4-c4cnc(C5CC5)nc4)CC3)C2)C1 [Compound A183]	–	–	80 to 100	< 5.00
CCOC(=O)N1CC2(CC[C@@H](N3CCN(c4cc(F)cnc4-c4cnn(C)c4)CC3)C2)C1 [Compound A190]	–	–	80 to 100	< 5.00
CCOC(=O)N1CC2(CC[C@@H](N3CCN(c4cc(F)cnc4-c4cccc(C)n4)CC3)C2)C1 [Compound A135]	19 to 49.9	< 5.00	–	–
CCOC(=O)N1CC2(CC[C@@H](N3CCN(c4cc(F)cnc4-c4ccc(F)nc4C)CC3)C2)C1 [Compound A161]	–	–	80 to 100	< 5.00
CCOC(=O)N1CC2(CC[C@@H](N3CCN(c4cc(F)cnc4-c4cccnc4OC)CC3)C2)C1 [Compound A46]	80 to 100	< 5.00	–	–
CCOC(=O)N1CC2(CC[C@@H](N3CCN(c4cc(F)cnc4-c4ccc(OC)nc4C)CC3)C2)C1 [Compound A137]	80 to 100	< 5.00	–	–
